Experimental data published in patent publication US9765358B2 (priority 2015, dated 2017).

Legend:
Lactobacillus plantarum = type: cell-based
Clostridium beijerinckii = type: cell-based

Compound	antibiotic susceptibility (disc, zone of clearance) (Lactobacillus plantarum)	antibiotic susceptibility (disc, zone of clearance) (Clostridium beijerinckii)
Cc1ncc([N+](=O)[O-])n1CCO [metronidazole]	resistance	susceptible
amoxicillin/clavulinic acid	resistant	susceptible
CC1(C)S[C@@H]2[C@H](NC(=O)C(C(=O)O)c3ccccc3)C(=O)N2[C@H]1C(=O)O (stereo partly drawn) [carbenicillin]	resistant	susceptible
CN[C@H](CC(C)C)C(=O)N[C@H]1C(=O)N[C@@H](CC(N)=O)C(=O)N[C@H]2C(=O)N[C@H]3C(=O)N[C@H](C(=O)N[C@H](C(=O)O)c4cc(O)cc(O)c4-c4cc3ccc4O)[C@H](O)c3ccc(c(Cl)c3)Oc3cc2cc(c3O[C@@H]2O[C@H](CO)[C@@H](O)[C@H](O)[C@H]2O[C@H]2C[C@](C)(N)[C@H](O)[C@H](C)O2)Oc2ccc(cc2Cl)[C@H]1O [vancomycin]		susceptible
CC[C@H]1OC(=O)[C@H](C)[C@@H](O[C@H]2C[C@@](C)(OC)[C@@H](O)[C@H](C)O2)[C@H](C)[C@@H](O[C@@H]2O[C@H](C)C[C@H](N(C)C)[C@H]2O)[C@](C)(O)C[C@@H](C)CN(C)[C@H](C)[C@@H](O)[C@]1(C)O [azithromycin]	susceptible	susceptible
